# Test results from patent US7465814B2, “Sulfonate compound and fluorescent probe using the same” (priority 2003, dated 2008).
# Assays:
# Assay type in all cases: biochemical
# [1] = Fluorescent response to diethylamine (Table 1); conditions: relative fluorescence intensity, blank = 10; probe 21.3 μM, diethylamine 50 μM, 37° C., 10 minutes
# Protocol: (§1) Moreover, in other conditions than those of the above-described tests, reactivity of all of the compounds 1a to 1d with H2O2, other various kinds of nucleophilic agents, reducing agents and the like also was tested, respectively. More specifically, fluorescent responses of 1a to 1d with respect to a XO-HPX system, a XO-HPX-SOD system, H2O2, ascorbic acid, 1,4-hydroquinone, propylamine, diethylamine, glucose, esterase, a cytochrome P450 reductase+NADPH system, and a diaphorase+NADH system were measured, respectively. Operational processes thereof will be described below. Firstly, 1a to 1d and the above-described reagents were dissolved in HEPES of 10 mM having a pH of 7.4 so as to prepare solutions, respectively. Next, a 96 wellmicroplate was provided, where any of the solutions of 1a to 1d (25 μM, 170 μL) was poured into each of the wells, and furthermore, 30 μL of a blank solution or 30 μL of the solution of the reagent to be reacted therewith was added thereto. Final concentrations of the solutions in the wells were adjusted so that concentrations of the solutions of 1a to 1d respectively could be 21.3 μM, that of XO could be 13.1 mU/mL, those of HPX, H2O2, ascorbic acid, 1,4-hydroquinone, propylamine, diethylamine, glucose, NADPH and NADH respectively could be 50 μM, that of cytochrome P450 reductase could be 68 mU/mL, that of diaphorase could be 65 mU/mL, and that of esterase could be 0.5 U/mL, respectively. Then, after they reacted in the wells at 37° C. for 10 minutes, fluorescent responses were measured respectively. Fluorescence intensity measurement was conducted by using an ETC-272 Peltier thermostatted single cell holder (trade name) manufactured by JASCO Corporation or a SpectraMax GeminiEM fluorescence plate reader (trade name) manufactured by Molecular Devices Corporation provided with a FP-750 spectrofluorometer (trade name) manufactured by JASCO Corporation, and by setting excitation wavelengths and emission wavelengths so that those of 1a, 1b and 1c respectively could be 485 nm and 515 nm, and those of 1d respectively could be 511 nm and 540 nm.
# [2] = Fluorescent response to 1,4-hydroquinone (Table 1); conditions: relative fluorescence intensity, blank = 10; probe 21.3 μM, 1,4-hydroquinone 50 μM, 37° C., 10 minutes
# Protocol: as §1
# [3] = Fluorescent response to H2O2 (Table 1); conditions: relative fluorescence intensity, blank = 10; probe 21.3 μM, H2O2 50 μM, 37° C., 10 minutes
# Protocol: as §1
# [4] = Capability as superoxide-detecting fluorescent probe (reactivity with superoxide)
# Protocol: Then, by mainly using the compound 1d as a testing compound, the capability thereof as a superoxide-selective fluorescent probe was evaluated, and moreover, a test in a cell system also was conducted. These tests will be described below.
# Thus, it is thought that each compound synthesized from a combination of: a phenolic colorant; and a 2,4-dinitrobenzenesulfonyl group, a 4-trifluoromethyl-2-nitrobenzenesulfonyl group or a 4-nitrobenzenesulfonyl group can be used as a superoxide-detecting fluorescent probe similarly. An example of the usage thereof will be shown in Scheme 8 below. Furthermore, it can be expected that a compound for a fluorescent probe having characteristics that are suitable for its application purpose can be designed and developed freely, by designing the compound of the present invention freely within the limitation defined by the general formula (I) and using the fluorescence mechanism developed by the inventors of the present invention, without being limited to the above-described combinations. Examples of the application purpose of the compound of the present invention are varied, including an application to a faintly coloring technique using superoxide.
smiles,measurement,setting,value
O=C1OC2(c3ccccc31)c1cc(F)c(OS(=O)(=O)c3ccc([N+](=O)[O-])cc3[N+](=O)[O-])c(F)c1Oc1c2cc(F)c(OS(=O)(=O)c2ccc([N+](=O)[O-])cc2[N+](=O)[O-])c1F [Compound 1d],"fluorescent response, diethylamine",[1],11
same,"fluorescent response, 1,4-hydroquinone",[2],11
same,"fluorescent response, H2O2",[3],11
same,fluorescence response by reacting with superoxide,[4],particularly superior in sensitivity
